Tested on: diabetic GK rats
Assay: Erectile response to electrical stimulation of the cavernous nerve (ICP monitoring) in a rat model of type II diabetes mellitus associated erectile dysfunction with impaired sildenafil response
Assay type: in vivo, Goto-Kakizaki (GK) rats
Description: The efficacy of compounds of Formula (I) for restoring or increasing responsiveness to treatment with a PDE5 inhibitor (sildenafil) is assessed in a rat model of type II diabetes mellitus associated erectile dysfunction in Goto-Kakizaki (GK) rats. Those rats show the main features of the metabolic, hormonal and vascular disorders usually described in T2D patients (Portha et al., 2001, Diabetes 50 (Suppl. 1): S89-S93; Portha et al., 1991, Diabetes 40, 486-491).
Adult male Wistar and age-matched Goto-Kakizaki (GK) rats (obtained by repeated inbreeding of non-diabetic Wistar rats selected at the upper limit or normal distribution if glucose tolerance as described in Goto et al., 1975, Proc. Jpn Acad, 51, 80-5 are housed at least 7 days prior to the beginning of the experiments with free access to standard chow and water and maintained on an inversed 12 h dark/light cycle (10:00/22:00).
At 15 weeks of age, treatment period is started; n=24 GK rats (Groups 4 & 5) receive a dose of compound 5 (30 mg/kg) while n=24 GK (Groups 1 and 3) rats and n=12 Wistar (Group 2) rats receive an equivalent volume of vehicle (25% HPβCD) of compound 5 by daily oral gavage for 28 days.
On day 29th after starting treatment administration, the rats (19 weeks of age) undergo an evaluation of their erectile response measured after electrical stimulation (ES) of the cavernous nerve (CN) by monitoring intracavernous pressure (ICP). For this purpose, rats are anesthetized (urethane […]) after a 3-hour fasting period (necessary for plasma glucose dosage), their temperature maintained at 37°C using a homeothermic blanket. The carotid artery was catheterized to record blood pressure (BP) via a pressure transducer (Elcomatic 750, Glasgow, UK). Both jugular veins were also catheterised to allow intravenous injections. CN is surgically exposed at the lateral aspect of the prostate and mounted on a bipolar platinum electrode connected to an electrical stimulator (AMS 2100, Phymep, France).
As a consequence, there are 16 hours between animals receiving their final administration of compound 5 or vehicle and initiation of evaluation of their erectile function. Rats were anesthetized and then received a 1st intravenous injection (iv) 25%HPβCD, the vehicle of compound 5, 60 minutes prior to the evaluation period of treatment effect. All rats also received a 2nd iv injection of either sildenafil (Sequoia research, Pangbourne, UK) 0.3mg/kg (groups 3 & 5) or normal saline, the vehicle of sildenafil, (groups 1, 2, 4) 56 minutes after the first injection.
At T=-15 minutes, the continuous recording of BP and ICP started. […] Two stimulations of the CN at 15Hz, 1 ms for 45 s were performed to elicit an increase of ICP to certify the correct implantation of the catheter and to assess baseline erectile response prior treatment
At T=0 minute, 25% HPβCD was injected intravenously.
At T+4 minutes and T+30 minutes, the CN was stimulated at 10Hz, 1ms for 45s.At T+56 minutes, sildenafil (0.3mg/kg) or normal saline was intravenously injected.
At T+ 60 minutes, and at 3 minutes intervals thereafter, the CN was stimulated at 6V, 1 ms for 45 s by different stimulation frequencies (10 Hz then 0, 2.5, 5, 7.5, 12.5 and 15 Hz) in a randomized manner in order to assess the erectile responses. These different electrical stimulations were repeated twice in view of establishing a frequency-response curve for each animal.
At T+ 120 minutes, the recording ended. […]

Structure (SMILES): CN(C)c1cccc(-c2c3c(=O)n(-c4ccccc4Cl)[nH]c3cc(=O)n2C)c1 [compound 5, 2-(2-chlorophenyl)-4-[3-(dimethylamino)phenyl]-5-methyl-1H-pyrazolo[4,3-c] pyridine-3,6(2H,5H)-dione]
- AUCtot/MAP following ES CN compared to control healthy Wistar rats (acute sildenafil 0.3 mg/kg combined with chronic compound 5 30mg/kg/day, Figure 1B): not significantly different
- AUCtot/MAP (pro-erectile facilitator effects) (chronic compound 5 30mg/kg/day combined with acute sildenafil iv 0.3mg/kg, p≤0.0001 vs. GK rats, 2-way ANOVA with interaction, figure 1B): further increased
- AUC45/MAP (pro-erectile facilitator effects) (chronic compound 5 30mg/kg/day combined with acute sildenafil iv 0.3mg/kg, p≤0.0001 vs. GK rats, 2-way ANOVA, Figure 1A): further increased
- erectile responses (AUC45/MAP) compared to healthy Wistar rats (chronic compound 5 alone at 30mg/kg/day, Figure 1A): significantly lower
- increase in AUCtot/MAP compared to each compound administered alone (combination of chronic compound 5 30mg/kg/day and acute sildenafil 0.3mg/kg, p≤0.0001 vs acute sildenafil, p≤0.05 vs chronic compound 5, Figure 1B): statistically significant
- AUCtot/MAP (erectile responses to ES CN) (compound 5 alone, 30mg/kg once daily oral for 4 weeks, compared to GK rats treated with vehicle, p=0.147, figure 1B): no statistical difference
- AUC45/MAP (erectile responses to ES CN) (compound 5 alone, 30mg/kg once daily oral for 4 weeks, compared to GK rats treated with vehicle, p≤0.05, figure 1A): statistically greater overall erectile responses

Structure (SMILES): CCCc1nn(C)c2c(=O)[nH]c(-c3cc(S(=O)(=O)N4CCN(C)CC4)ccc3OCC)nc12 [sildenafil, reference compound]
- erectile responses (AUC45/MAP) compared to healthy Wistar rats (acute sildenafil alone, iv single administration 0.3mg/kg, Figure 1A): significantly lower
- erectile responses to ES CN (acute sildenafil alone, iv single administration at 0.3mg/kg): pro-erectile facilitator effects

Source: patent EP2857399A1, “Compounds useful for the treatment of PDE5 inhibitor-poorly responsive erectile dysfunction” (GenKyoTex SA, priority 2013, dated 2015)
